Reference: PMC4685510, “A Cell Biologist’s Field Guide to Aurora Kinase Inhibitors” (Frontiers in Oncology, 2015)

Key:
Assay in all cases: biochemical
Format in all cases: biochemical
[1] = target: 363 human kinases (including Aurora A/B/C) (Homo sapiens, UniProt O96017); settings: CHK2, [ATP] 20 µM
Description: (§1) However, the Aurora A/B selectivity ratios derived from our in vitro and in vivo data can be compared to prioritize inhibitors.

[2] = target: 363 human kinases (including Aurora A/B/C) (Homo sapiens, UniProt P17612); settings: PKA; for remaining activity at 0.1 µM: 100 nM; for remaining activity at 0.1 µM / remaining activity at 0.5 µM: read-out: % Enzyme Activity (relative to DMSO controls)
Description: as §1

[3] = target: T1, 363 human kinases (including Aurora A/B/C) (Homo sapiens, UniProt P25098); settings: GRK2; for remaining activity at 0.1 µM: 100 nM; for remaining activity at 0.1 µM / remaining activity at 0.5 µM: read-out: % Enzyme Activity (relative to DMSO controls)
T1 sequence (P25098 1-689): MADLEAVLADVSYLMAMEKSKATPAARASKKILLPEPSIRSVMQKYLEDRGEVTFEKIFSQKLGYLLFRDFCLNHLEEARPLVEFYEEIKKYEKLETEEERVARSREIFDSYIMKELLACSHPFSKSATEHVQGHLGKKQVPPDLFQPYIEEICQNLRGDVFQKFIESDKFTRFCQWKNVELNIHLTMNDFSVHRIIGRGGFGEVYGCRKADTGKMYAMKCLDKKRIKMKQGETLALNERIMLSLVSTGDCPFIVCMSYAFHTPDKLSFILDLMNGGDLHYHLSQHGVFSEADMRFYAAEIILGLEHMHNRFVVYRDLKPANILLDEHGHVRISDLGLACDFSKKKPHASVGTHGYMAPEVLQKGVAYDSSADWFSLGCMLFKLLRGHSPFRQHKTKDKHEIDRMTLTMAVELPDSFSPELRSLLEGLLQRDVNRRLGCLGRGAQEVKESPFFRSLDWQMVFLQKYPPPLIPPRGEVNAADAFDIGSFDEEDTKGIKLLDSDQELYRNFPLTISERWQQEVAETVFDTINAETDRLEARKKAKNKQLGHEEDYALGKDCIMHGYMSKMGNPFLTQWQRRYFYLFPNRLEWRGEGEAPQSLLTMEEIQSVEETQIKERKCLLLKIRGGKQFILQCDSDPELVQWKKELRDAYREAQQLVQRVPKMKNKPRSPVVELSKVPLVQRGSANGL
Description: as §1

[4] = target: T2, 363 human kinases (including Aurora A/B/C) (Homo sapiens, UniProt P36896); settings: ALK4/ACVR1B, [ATP] 50 µM; for remaining activity at 0.1 µM: 100 nM; for remaining activity at 0.1 µM / remaining activity at 0.5 µM: read-out: % Enzyme Activity (relative to DMSO controls)
T2 sequence (P36896 24-505): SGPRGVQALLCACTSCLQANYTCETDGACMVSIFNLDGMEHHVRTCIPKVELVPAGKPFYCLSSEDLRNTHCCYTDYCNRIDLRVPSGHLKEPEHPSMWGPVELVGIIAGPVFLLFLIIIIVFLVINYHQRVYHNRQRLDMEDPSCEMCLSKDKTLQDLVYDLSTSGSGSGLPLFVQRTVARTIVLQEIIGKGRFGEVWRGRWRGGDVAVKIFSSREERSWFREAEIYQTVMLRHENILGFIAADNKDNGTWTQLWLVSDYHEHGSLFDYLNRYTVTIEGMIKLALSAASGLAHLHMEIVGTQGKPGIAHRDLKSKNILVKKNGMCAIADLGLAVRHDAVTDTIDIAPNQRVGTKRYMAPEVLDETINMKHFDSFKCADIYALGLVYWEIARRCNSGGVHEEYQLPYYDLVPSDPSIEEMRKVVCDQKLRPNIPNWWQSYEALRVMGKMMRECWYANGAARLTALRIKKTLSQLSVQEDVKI
Description: as §1

[5] = target: 363 human kinases (including Aurora A/B/C) (Homo sapiens, UniProt P41240); settings: CSK, [ATP] 15 µM; for remaining activity at 0.1 µM: 100 nM; for remaining activity at 0.1 µM / remaining activity at 0.5 µM: read-out: % Enzyme Activity (relative to DMSO controls)
Chain of 363 human kinases (including Aurora A/B/C) (Homo sapiens, UniProt P41240) (P41240 whole entry): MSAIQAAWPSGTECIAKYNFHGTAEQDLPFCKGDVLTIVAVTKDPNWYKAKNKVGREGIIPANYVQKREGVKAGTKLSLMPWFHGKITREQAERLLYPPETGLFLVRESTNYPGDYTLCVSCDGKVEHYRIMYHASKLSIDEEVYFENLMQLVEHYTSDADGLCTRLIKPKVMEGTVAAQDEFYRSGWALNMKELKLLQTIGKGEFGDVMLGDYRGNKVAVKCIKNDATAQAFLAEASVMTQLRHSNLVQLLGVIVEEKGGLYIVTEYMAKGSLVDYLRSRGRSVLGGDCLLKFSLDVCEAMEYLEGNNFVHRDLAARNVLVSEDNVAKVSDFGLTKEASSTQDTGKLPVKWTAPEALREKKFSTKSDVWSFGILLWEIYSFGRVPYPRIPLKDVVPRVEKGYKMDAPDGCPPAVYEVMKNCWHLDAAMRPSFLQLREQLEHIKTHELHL
Description: as §1

[6] = target: 363 human kinases (including Aurora A/B/C) (Homo sapiens, UniProt Q15569); settings: TESK1; for remaining activity at 0.1 µM: 100 nM; for remaining activity at 0.1 µM / remaining activity at 0.5 µM: read-out: % Enzyme Activity (relative to DMSO controls)
Chain of 363 human kinases (including Aurora A/B/C) (Homo sapiens, UniProt Q15569) (Q15569 whole entry): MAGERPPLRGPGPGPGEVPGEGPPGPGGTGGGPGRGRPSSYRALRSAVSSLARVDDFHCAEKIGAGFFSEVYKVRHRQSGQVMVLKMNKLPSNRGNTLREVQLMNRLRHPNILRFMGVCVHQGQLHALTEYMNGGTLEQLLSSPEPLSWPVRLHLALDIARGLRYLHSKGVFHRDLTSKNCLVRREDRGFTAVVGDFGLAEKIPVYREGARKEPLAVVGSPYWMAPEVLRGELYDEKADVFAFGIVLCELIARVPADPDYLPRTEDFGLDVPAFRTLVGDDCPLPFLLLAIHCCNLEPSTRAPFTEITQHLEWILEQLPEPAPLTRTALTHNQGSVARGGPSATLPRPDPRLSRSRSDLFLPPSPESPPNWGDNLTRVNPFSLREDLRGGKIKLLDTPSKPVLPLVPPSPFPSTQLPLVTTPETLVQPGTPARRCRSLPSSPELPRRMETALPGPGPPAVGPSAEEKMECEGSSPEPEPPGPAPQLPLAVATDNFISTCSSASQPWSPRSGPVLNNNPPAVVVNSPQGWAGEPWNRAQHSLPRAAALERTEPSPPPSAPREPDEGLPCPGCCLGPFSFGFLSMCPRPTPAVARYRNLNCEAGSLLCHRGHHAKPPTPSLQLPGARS
Description: as §1

[7] = target: T3, 363 human kinases (including Aurora A/B/C) (Homo sapiens, UniProt Q8N752); settings: CK1a1L, [ATP] 30 µM; for remaining activity at 0.1 µM: 100 nM; for remaining activity at 0.1 µM / remaining activity at 0.5 µM: read-out: % Enzyme Activity (relative to DMSO controls)
T3 sequence (Q8N752 1-337): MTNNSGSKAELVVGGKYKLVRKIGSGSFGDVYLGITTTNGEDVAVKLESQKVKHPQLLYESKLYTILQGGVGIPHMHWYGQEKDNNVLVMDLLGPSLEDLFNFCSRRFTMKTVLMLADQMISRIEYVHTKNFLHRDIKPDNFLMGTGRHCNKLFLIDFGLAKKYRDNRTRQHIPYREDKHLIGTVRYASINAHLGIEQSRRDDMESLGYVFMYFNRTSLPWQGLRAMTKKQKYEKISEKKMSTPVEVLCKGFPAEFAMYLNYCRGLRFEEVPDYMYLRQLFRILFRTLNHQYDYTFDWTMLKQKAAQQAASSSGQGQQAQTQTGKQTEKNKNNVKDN
Description: as §1

[8] = target: 363 human kinases (including Aurora A/B/C) (Homo sapiens, UniProt Q9H2G2); settings: SLK/STK2; for remaining activity at 0.1 µM: 100 nM; for remaining activity at 0.1 µM / remaining activity at 0.5 µM: read-out: % Enzyme Activity (relative to DMSO controls)
Chain of 363 human kinases (including Aurora A/B/C) (Homo sapiens, UniProt Q9H2G2) (Q9H2G2 whole entry): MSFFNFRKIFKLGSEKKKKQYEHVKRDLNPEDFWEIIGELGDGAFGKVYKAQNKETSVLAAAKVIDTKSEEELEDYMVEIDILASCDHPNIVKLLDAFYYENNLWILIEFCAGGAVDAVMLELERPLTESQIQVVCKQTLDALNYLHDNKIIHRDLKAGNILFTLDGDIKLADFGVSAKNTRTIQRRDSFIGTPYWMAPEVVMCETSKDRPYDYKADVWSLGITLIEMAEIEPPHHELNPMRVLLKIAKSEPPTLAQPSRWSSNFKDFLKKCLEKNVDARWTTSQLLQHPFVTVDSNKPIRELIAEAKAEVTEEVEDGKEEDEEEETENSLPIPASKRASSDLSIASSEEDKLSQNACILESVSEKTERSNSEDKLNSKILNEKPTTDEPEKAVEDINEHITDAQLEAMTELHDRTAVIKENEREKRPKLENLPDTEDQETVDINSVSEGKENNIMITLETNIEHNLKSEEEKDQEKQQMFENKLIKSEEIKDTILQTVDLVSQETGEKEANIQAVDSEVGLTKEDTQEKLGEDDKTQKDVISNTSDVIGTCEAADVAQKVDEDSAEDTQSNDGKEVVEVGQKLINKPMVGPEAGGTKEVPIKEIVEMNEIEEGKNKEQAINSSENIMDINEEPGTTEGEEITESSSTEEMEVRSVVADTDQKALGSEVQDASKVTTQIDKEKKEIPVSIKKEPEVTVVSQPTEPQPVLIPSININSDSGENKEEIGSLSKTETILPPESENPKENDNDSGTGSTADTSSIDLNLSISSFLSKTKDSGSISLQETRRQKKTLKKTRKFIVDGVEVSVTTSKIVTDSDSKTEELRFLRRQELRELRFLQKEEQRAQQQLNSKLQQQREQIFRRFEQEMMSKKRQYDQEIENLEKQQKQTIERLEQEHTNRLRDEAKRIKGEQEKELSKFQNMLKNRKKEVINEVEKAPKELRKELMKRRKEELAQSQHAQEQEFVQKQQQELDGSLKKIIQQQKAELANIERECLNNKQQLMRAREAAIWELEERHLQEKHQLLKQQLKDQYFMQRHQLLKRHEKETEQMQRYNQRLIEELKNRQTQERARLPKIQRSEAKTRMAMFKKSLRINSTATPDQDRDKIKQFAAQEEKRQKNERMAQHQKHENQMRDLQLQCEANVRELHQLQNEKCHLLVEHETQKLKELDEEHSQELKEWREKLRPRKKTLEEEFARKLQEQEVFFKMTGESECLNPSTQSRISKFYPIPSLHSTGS
Description: as §1

[9] = target: 363 human kinases (including Aurora A/B/C) (Homo sapiens, UniProt Q9UKE5); settings: TNIK; for remaining activity at 0.1 µM: 100 nM; for remaining activity at 0.1 µM / remaining activity at 0.5 µM: read-out: % Enzyme Activity (relative to DMSO controls)
Chain of 363 human kinases (including Aurora A/B/C) (Homo sapiens, UniProt Q9UKE5) (Q9UKE5 whole entry): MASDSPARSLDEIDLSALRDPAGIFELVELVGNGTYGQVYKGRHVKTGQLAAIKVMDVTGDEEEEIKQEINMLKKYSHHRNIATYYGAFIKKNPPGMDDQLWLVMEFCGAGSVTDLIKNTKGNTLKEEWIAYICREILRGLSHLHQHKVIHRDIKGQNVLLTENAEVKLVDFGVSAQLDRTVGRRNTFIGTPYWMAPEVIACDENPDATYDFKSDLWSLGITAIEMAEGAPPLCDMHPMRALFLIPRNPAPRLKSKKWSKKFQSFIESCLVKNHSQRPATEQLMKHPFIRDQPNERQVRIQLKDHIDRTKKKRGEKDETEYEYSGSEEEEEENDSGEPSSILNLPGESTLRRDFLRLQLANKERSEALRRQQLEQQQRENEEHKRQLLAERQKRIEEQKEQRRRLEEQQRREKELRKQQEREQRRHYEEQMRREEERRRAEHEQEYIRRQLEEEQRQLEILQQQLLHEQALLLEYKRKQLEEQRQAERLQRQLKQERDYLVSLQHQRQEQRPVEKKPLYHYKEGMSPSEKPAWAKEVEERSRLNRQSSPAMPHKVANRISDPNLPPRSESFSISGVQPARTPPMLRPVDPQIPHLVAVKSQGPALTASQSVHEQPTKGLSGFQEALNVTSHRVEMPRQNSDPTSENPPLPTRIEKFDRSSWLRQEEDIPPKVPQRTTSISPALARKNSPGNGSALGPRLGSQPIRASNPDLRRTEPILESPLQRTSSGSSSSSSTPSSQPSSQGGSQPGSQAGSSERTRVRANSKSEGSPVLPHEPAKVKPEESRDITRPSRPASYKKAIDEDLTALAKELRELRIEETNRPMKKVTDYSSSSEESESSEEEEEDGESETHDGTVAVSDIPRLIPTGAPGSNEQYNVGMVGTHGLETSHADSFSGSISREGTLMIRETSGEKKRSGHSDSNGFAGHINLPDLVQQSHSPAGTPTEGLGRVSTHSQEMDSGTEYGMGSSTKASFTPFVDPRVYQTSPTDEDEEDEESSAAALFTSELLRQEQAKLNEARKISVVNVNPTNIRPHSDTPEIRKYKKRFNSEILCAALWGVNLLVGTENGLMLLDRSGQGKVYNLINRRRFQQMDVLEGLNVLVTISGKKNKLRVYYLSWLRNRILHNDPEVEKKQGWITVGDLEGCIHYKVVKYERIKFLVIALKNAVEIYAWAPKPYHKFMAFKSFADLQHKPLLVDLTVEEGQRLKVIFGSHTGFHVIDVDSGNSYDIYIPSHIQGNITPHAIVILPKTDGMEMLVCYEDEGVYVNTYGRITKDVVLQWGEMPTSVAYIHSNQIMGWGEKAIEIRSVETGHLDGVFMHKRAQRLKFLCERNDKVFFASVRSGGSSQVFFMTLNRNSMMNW
Description: as §1

[10] = target: 363 human kinases (including Aurora A/B/C) (Homo sapiens, UniProt Q9UQM7); settings: CAMK2a, [ATP] 100 µM; for remaining activity at 0.1 µM: 100 nM; for remaining activity at 0.1 µM / remaining activity at 0.5 µM: read-out: % Enzyme Activity (relative to DMSO controls)
Chain of 363 human kinases (including Aurora A/B/C) (Homo sapiens, UniProt Q9UQM7) (Q9UQM7 whole entry): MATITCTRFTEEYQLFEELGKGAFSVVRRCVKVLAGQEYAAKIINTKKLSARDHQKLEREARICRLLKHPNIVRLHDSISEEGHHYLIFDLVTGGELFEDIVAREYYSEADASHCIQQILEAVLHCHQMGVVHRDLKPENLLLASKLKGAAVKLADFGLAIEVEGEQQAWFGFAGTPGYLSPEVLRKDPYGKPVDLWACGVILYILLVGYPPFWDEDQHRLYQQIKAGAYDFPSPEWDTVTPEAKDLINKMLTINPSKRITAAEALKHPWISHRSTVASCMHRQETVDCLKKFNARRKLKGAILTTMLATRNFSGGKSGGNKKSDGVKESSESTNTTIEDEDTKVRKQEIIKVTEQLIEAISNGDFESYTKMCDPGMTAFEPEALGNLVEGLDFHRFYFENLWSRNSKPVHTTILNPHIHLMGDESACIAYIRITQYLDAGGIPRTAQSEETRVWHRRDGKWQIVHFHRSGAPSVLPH
Description: as §1

[11] = target: 363 human kinases (including Aurora A/B/C) (Homo sapiens, UniProt Q9Y572); settings: RIPK3; for remaining activity at 0.1 µM: 100 nM; for remaining activity at 0.1 µM / remaining activity at 0.5 µM: read-out: % Enzyme Activity (relative to DMSO controls)
Chain of 363 human kinases (including Aurora A/B/C) (Homo sapiens, UniProt Q9Y572) (Q9Y572 whole entry): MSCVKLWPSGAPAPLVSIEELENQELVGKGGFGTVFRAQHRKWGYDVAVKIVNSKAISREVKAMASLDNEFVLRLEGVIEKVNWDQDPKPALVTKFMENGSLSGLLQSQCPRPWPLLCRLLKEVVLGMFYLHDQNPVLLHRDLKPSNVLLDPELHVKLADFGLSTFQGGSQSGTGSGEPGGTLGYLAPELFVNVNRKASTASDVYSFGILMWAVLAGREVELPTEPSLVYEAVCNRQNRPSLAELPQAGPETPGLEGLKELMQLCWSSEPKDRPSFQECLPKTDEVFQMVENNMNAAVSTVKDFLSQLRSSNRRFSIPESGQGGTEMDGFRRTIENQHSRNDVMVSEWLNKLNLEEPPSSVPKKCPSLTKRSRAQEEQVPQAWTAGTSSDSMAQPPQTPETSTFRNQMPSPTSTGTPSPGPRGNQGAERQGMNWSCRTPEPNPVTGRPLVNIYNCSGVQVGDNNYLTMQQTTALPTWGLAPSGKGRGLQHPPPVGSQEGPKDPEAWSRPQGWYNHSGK
Description: as §1

[12] = 500 nM, read-out: % Enzyme Activity (relative to DMSO controls)

Structure (SMILES) | remaining activity at 0.1 µM [2] [%] | remaining activity at 0.1 µM [3] [%] | remaining activity at 0.1 µM [4] [%] | remaining activity at 0.1 µM [5] [%] | remaining activity at 0.1 µM [6] [%] | remaining activity at 0.1 µM [7] [%] | remaining activity at 0.1 µM [8] [%] | remaining activity at 0.1 µM [9] [%] | remaining activity at 0.1 µM [10] [%] | remaining activity at 0.1 µM [11] [%] | remaining activity at 0.5 µM [1, 12] [%] | remaining activity at 0.5 µM ([2]; 500 nM) [%] | remaining activity at 0.5 µM ([3]; 500 nM) [%] | remaining activity at 0.5 µM ([4]; 500 nM) [%] | remaining activity at 0.5 µM ([5]; 500 nM) [%] | remaining activity at 0.5 µM ([6]; 500 nM) [%] | remaining activity at 0.5 µM ([7]; 500 nM) [%] | remaining activity at 0.5 µM ([8]; 500 nM) [%] | remaining activity at 0.5 µM ([9]; 500 nM) [%] | remaining activity at 0.5 µM ([10]; 500 nM) [%] | also measured
CCn1cc(-c2ccnc3[nH]c(-c4cccc(CN(C)C)c4)cc23)c(-c2ccc(NC(=O)N(C)C)cc2)n1 [GSK1070916] | 95.5 | 101 | 102 | 99.8 | 103 | 108 | 95.2 | 57.3 | 102 | 88.3 |  |  |  |  |  |  |  |  |  |  | remaining activity at 0.1 µM ([1]; 100 nM, read-out: % Enzyme Activity (relative to DMSO controls)): 99.2%
O=C(O)[C@]1(Cc2cccc(Nc3nccs3)n2)CC[C@@H](Oc2cccc(Cl)c2F)CC1 [MK-5108] | 100 | 102 | 106 | 93.9 | 97.9 | 108 | 53.5 | 49.5 | 95.4 | 122 | 56.2 | 96.4 | 106 | 92.9 | 67.9 | 99.8 | 115 | 16.7 | 14.8 | 101 | remaining activity at 0.5 µM ([11]; 500 nM): 87.7%
O=C(c1cccc(Cl)c1F)N1CCN(Cc2cccc(Nc3nccs3)n2)CC1 [MK-8745] |  |  |  |  |  |  |  |  |  |  | 93.2 | 98.9 | 105 | 137 | 95.8 | 99.9 | 103 | 77.7 | 81.3 | 104 | % Enzyme Activity (relative to DMSO controls) ([1]; 500 nM): 91.78%; % Enzyme Activity (relative to DMSO controls) ([2]; 500 nM): 96.39%; % Enzyme Activity (relative to DMSO controls) ([3]; 500 nM): 103.92%; % Enzyme Activity (relative to DMSO controls) ([4]; 500 nM): 133.43%; % Enzyme Activity (relative to DMSO controls) ([5]; 500 nM): 94.61%; % Enzyme Activity (relative to DMSO controls) ([6]; 500 nM): 97.82%; % Enzyme Activity (relative to DMSO controls) ([7]; 500 nM): 102.40%; % Enzyme Activity (relative to DMSO controls) ([8]; 500 nM): 77.19%; % Enzyme Activity (relative to DMSO controls) ([9]; 500 nM): 77.61%; % Enzyme Activity (relative to DMSO controls) ([10]; 500 nM): 101.40%; % Enzyme Activity (relative to DMSO controls) ([11]; 500 nM): 90.81%; remaining activity at 0.5 µM ([11]; 500 nM): 94.8%
